Test results published in ChEMBL document CHEMBL1201862, “PubChem BioAssay data set” (2004).
Structures can show the parent of a compound that is named as a salt. One block for each compound: values may come before it. Active and inactive are the calls of the source.

Tests used:
[1] = molecular target: Voltage-gated inwardly rectifying potassium channel KCNH2 (Homo sapiens, UniProt Q12809); details: Potency;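 also: confirmatory quantitative high-throughput screen measuring inhibition of hERG channel activity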
Voltage-gated inwardly rectifying potassium channel KCNH2, sequence (Q12809 whole entry, the tested form may be a part): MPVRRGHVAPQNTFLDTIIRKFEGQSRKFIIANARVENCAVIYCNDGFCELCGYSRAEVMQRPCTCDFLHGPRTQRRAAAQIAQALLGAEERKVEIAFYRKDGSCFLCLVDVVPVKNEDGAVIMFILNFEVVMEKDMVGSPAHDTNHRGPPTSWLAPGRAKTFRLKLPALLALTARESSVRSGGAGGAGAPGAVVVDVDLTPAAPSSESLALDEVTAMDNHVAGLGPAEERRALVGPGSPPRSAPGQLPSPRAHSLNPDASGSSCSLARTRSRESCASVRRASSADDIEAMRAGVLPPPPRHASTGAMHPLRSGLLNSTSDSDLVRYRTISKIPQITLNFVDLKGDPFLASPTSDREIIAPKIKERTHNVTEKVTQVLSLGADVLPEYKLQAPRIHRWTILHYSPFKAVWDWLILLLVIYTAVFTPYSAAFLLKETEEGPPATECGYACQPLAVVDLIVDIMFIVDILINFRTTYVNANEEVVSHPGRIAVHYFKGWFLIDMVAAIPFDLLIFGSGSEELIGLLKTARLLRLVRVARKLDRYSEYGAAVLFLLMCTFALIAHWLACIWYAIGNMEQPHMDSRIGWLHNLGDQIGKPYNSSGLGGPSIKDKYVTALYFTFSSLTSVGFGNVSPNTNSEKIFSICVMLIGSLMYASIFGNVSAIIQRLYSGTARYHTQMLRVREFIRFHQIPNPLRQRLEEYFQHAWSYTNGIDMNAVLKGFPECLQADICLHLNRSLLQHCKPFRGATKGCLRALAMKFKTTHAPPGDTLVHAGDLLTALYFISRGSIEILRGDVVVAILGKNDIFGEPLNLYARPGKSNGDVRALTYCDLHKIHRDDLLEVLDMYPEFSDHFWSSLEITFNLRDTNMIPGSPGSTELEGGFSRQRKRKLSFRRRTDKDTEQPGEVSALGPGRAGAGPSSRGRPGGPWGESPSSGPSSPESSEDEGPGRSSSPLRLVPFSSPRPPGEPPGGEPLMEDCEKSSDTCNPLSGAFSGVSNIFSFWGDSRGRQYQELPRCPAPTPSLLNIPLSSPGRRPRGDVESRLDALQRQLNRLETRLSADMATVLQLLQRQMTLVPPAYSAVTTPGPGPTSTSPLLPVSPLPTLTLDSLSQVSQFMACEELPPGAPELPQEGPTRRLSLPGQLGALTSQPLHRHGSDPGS

[2] = molecular target: T1, Carboxy-terminal domain RNA polymerase II polypeptide A small phosphatase 1 (Homo sapiens, UniProt Q9GZU7); assay: inhibitors of CTDSP1, concentration-response testing, biochemical assay, absorbance-based, actives from ultra-high-throughput screening (AID 540297); type: functional
T1 sequence (Q9GZU7 whole entry): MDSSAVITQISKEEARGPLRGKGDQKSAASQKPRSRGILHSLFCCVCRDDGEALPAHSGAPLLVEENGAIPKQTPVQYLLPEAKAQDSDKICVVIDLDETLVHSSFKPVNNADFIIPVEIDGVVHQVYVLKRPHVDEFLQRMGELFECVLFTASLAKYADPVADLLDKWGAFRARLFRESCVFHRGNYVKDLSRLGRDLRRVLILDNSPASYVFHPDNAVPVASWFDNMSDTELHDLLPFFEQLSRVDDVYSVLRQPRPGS

[3] = molecular target: T2, Corticotropin-releasing factor receptor 2/Corticotropin-releasing factor-binding protein (Homo sapiens, UniProt P24387+Q13324); assay: Dose Response confirmation of uHTS hits for small molecule antagonists of the CRF-binding protein and CRF-R2 receptor complex.; type: functional; details: read-out: IC50_Mean
T2 sequence (Q13324 whole entry): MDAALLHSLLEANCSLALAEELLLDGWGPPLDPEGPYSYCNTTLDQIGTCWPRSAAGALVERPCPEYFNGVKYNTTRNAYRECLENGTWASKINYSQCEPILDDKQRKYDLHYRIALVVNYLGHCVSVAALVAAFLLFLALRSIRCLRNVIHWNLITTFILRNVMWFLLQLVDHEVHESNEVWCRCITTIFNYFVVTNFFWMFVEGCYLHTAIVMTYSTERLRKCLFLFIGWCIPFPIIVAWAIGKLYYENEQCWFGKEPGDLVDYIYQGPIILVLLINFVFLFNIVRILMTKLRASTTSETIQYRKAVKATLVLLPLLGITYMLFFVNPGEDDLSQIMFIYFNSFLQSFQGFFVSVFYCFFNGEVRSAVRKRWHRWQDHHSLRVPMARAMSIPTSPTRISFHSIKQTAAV
T2 sequence (P24387 whole entry): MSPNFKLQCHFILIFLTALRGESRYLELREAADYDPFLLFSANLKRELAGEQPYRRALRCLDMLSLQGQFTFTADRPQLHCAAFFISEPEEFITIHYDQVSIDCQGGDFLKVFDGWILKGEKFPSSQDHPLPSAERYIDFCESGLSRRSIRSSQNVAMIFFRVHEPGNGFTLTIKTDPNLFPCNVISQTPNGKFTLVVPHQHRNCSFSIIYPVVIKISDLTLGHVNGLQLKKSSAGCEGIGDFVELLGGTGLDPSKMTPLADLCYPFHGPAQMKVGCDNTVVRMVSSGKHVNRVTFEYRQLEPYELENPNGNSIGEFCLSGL

[4] = molecular target: T2, Corticotropin-releasing factor receptor 2/Corticotropin-releasing factor-binding protein; assay: activators of CRF receptor 2 with binding protein – uHTS hits, confirmation (AID 602473); type: functional; details: read-out: EC50_Mean
[5] = CRF-BP/CRF-R2 complex antagonists, dose response, cell-based, uHTS hits, 384-well (AID 651639); type: functional, Homo sapiens; details: read-out: IC50_Mean
[6] = molecular target: T3, High affinity choline transporter 1 (Homo sapiens, UniProt Q9GZV3); assay: CHT inhibitors, dose response, cell-based, 5-point CRC, membrane potential dye (AID 504840); type: functional
T3 sequence (Q9GZV3 whole entry): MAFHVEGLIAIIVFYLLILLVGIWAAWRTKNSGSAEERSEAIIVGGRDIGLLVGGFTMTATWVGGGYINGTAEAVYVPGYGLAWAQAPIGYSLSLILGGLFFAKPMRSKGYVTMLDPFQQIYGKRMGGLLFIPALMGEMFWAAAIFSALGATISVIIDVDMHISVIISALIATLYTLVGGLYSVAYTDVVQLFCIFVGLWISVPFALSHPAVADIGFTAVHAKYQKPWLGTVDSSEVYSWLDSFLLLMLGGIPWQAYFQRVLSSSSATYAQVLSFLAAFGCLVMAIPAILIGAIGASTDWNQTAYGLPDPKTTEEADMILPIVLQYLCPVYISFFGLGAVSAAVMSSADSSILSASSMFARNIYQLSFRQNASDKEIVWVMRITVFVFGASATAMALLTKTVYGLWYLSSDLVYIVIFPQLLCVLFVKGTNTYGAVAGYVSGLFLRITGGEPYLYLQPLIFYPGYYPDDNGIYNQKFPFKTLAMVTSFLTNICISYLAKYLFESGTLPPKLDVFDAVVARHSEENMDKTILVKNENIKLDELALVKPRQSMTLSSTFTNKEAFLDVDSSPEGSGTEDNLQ

[7] = molecular target: T3, High affinity choline transporter 1; assay: CHT inhibitors, dose response, cell-based, 10-point CRC, membrane potential dye (AID 588401); type: functional;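 also: membrane potential dye fluorescence of choline-evoked depolarization via CHT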
[8] = molecular target: T4, Fatty acid synthase (Homo sapiens, UniProt P49327); assay: FAS thioesterase domain inhibitors, dose response, biochemical, endpoint fluorescence intensity, uHTS hits (AID 624327); type: functional;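 also: fluorescence from hydrolysis of an O-methyl fluorescein acyl ester substrate by the enzyme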
T4 sequence (P49327 whole entry, the tested form may be a part): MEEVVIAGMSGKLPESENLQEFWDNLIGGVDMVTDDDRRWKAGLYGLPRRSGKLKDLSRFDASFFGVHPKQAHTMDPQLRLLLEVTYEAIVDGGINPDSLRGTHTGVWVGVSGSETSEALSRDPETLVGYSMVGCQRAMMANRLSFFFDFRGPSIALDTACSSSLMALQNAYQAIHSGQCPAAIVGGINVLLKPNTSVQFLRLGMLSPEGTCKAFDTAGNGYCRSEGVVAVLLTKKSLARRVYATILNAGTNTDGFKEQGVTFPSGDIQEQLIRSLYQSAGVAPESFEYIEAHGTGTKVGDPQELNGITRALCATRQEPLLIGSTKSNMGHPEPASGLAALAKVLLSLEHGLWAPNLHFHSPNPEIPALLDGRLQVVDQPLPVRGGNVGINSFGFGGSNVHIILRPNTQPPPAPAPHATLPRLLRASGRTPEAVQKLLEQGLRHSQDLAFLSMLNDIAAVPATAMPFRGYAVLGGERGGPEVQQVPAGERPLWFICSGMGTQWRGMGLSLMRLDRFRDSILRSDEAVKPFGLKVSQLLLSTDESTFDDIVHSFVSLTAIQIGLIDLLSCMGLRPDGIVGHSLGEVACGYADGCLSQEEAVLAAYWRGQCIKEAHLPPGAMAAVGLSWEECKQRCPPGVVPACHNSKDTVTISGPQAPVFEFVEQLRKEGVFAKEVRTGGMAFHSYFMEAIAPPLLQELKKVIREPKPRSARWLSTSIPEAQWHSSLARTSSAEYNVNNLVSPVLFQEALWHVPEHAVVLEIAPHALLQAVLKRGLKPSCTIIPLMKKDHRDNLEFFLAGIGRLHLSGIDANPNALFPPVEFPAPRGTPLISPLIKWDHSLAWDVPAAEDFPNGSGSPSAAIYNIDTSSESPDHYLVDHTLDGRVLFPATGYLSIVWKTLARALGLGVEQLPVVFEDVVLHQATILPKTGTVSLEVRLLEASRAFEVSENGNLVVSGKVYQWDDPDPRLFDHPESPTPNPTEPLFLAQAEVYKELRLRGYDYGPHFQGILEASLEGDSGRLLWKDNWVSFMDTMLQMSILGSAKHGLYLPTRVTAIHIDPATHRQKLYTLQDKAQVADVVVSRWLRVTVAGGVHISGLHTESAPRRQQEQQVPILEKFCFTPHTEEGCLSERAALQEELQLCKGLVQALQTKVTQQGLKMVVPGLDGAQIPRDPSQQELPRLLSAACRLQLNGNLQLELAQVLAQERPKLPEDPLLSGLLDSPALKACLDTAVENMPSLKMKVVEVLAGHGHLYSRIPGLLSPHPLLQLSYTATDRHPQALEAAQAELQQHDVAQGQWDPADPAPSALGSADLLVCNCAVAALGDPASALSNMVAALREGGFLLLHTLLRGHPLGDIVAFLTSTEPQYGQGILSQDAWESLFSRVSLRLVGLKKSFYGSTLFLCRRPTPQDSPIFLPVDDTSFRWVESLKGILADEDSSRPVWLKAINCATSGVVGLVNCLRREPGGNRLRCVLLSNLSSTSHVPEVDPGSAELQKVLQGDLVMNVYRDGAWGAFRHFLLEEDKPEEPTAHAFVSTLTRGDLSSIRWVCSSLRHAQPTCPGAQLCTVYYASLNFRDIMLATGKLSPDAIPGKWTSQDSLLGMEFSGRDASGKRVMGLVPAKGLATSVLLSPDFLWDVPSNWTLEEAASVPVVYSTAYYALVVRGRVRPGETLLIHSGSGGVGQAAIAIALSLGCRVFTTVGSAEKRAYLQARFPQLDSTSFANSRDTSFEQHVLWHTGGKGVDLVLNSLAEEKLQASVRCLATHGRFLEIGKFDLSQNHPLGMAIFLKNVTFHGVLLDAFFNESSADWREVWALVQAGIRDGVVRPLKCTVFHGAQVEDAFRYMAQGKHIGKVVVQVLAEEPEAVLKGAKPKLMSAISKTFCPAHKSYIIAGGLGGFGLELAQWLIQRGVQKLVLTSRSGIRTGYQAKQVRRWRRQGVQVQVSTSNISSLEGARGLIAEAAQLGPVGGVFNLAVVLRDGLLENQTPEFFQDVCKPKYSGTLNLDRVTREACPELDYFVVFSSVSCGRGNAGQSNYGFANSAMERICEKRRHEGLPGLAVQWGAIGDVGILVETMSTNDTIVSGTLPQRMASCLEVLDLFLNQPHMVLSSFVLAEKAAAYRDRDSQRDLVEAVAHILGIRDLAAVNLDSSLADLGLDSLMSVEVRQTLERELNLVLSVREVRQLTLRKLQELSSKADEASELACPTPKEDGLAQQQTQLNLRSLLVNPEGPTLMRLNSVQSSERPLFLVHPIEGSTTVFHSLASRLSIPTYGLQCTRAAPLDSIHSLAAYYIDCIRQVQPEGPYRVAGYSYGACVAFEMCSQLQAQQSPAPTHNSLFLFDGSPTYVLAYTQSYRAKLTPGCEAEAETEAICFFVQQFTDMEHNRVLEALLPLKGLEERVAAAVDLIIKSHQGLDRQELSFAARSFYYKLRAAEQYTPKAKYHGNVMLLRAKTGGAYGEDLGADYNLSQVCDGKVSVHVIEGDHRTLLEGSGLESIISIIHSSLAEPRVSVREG

[9] = molecular target: T4, Fatty acid synthase; assay: FAS thioesterase domain inhibitors, dose response, biochemical, kinetic fluorescence intensity (AID 624326); type: functional;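 also: rate of fluorescence rise from hydrolysis of a fluorogenic O-methyl fluorescein ester substrate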
[10] = system: BJ; assay: cytotoxicity toward BJ-TERT fibroblasts, dose response, cell-based, RAS-independent, luminescence (AID 1933); type: functional; details: Homo sapiens
[11] = system: BJ; assay: cells; type: functional, cell-based; details: Homo sapiens
[12] = system: BJ; assay: cytotoxicity toward BJ-TERT-LT-ST fibroblasts, dose response, cell-based, RAS-independent, luminescence (AID 1935); type: functional; details: Homo sapiens;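 also: BJ fibroblasts immortalized with TERT plus LT and ST oncogenes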
[13] = cytotoxicity toward DRD oncogenic fibroblasts, dose response, cell-based, non-viral oncogenic, luminescence (AID 1934); type: functional; details: Homo sapiens
[14] = Fluorescence-based cell-based high throughput dose response assay for inhibitors of the interaction of nucleotide-binding oligomerization domain containing 2 (NOD2) and the receptor-interacting serine-threonine kinase 2 (RIPK2).; type: functional; details: Homo sapiens
[15] = NIH-3T3 fibroblast cytotoxicity, dose response, cytotoxicity control, cell-based, fluorescence, Alamar Blue, secondary assay (AID 2327); type: functional;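 also: NIH-3T3 mouse fibroblasts cultured with fluconazole at 8 µg/mL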
[16] = system: Streptococcus sp. 'group A'; assay: growth inhibition of control SK(-) GAS strain, dose response, counter-screen for streptokinase expression inhibitor project, luminescence, kanamycin, BacTiterGlo, confirmation (AID 1900); type: functional, organism-based
[17] = C. albicans growth with fluconazole, confirmation, fluorescence, retest (AID 2467); type: functional, cell-based
[18] = molecular target: T5, Serine/threonine-protein phosphatase (Candida dubliniensis (strain CD36 / CBS 7987 / NCPF 3949 / NRRLY-17841) (Yeast), UniProt B9W6M3); assay: calcineurin pathway inhibitors in yeast reporter, dose response, S. cerevisiae, CDRE-lacZ, luminescence, secondary (AID 2388); type: functional, cell-based;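 also: yeast reporter cells carrying a calcineurin-responsive lacZ construct stimulated with calcium chloride; luminescent beta-galactosidase reporter signal in whole cells rather than isolated phosphatase activity; potency for inhibition where a drop in reporter signal means calcineurin blockade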
T5 sequence (B9W6M3 whole entry): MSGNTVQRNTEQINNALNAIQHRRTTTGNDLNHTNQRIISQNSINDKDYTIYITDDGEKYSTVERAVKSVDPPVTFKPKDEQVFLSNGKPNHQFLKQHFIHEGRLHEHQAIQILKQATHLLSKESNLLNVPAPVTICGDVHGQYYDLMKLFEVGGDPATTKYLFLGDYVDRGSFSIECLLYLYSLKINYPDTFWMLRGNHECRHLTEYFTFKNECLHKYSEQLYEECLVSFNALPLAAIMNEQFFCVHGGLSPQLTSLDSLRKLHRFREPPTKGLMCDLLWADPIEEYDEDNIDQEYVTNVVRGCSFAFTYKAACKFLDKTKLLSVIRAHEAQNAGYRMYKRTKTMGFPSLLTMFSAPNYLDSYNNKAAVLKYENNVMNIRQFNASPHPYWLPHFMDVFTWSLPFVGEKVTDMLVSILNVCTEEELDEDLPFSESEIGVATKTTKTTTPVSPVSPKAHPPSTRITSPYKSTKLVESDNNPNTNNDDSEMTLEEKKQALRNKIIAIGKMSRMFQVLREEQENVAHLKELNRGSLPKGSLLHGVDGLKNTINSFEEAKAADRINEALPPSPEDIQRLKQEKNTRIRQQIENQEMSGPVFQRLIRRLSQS

[19] = system: Streptococcus; assay: Group A Streptococcus viability loss, dose response, counter-screen for streptokinase expression inhibitor project, luminescence, BacTiterGlo (AID 1915); type: functional, organism-based;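 also: potency for reduction of bacterial viability or growth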
[20] = Luminescence Cell-Based Dose Retest to Confirm Inhibitors of Cancer Stem Cells. [Related pubchem assays (depositor defined):AID2717, AID2721]; type: functional; details: Homo sapiens
[21] = molecular target: Heat shock protein HSP 90-alpha (Homo sapiens, UniProt P07900); type: functional, organism-based
[22] = molecular target: Genome polyprotein (dengue virus type 2, UniProt P29990); assay: Dengue-2 NS5 methyltransferase inhibitors, primary screen, biochemical, confirmation dose response (AID 588689); type: functional
Genome polyprotein, sequence (P29990 2492-3391 limits assumed): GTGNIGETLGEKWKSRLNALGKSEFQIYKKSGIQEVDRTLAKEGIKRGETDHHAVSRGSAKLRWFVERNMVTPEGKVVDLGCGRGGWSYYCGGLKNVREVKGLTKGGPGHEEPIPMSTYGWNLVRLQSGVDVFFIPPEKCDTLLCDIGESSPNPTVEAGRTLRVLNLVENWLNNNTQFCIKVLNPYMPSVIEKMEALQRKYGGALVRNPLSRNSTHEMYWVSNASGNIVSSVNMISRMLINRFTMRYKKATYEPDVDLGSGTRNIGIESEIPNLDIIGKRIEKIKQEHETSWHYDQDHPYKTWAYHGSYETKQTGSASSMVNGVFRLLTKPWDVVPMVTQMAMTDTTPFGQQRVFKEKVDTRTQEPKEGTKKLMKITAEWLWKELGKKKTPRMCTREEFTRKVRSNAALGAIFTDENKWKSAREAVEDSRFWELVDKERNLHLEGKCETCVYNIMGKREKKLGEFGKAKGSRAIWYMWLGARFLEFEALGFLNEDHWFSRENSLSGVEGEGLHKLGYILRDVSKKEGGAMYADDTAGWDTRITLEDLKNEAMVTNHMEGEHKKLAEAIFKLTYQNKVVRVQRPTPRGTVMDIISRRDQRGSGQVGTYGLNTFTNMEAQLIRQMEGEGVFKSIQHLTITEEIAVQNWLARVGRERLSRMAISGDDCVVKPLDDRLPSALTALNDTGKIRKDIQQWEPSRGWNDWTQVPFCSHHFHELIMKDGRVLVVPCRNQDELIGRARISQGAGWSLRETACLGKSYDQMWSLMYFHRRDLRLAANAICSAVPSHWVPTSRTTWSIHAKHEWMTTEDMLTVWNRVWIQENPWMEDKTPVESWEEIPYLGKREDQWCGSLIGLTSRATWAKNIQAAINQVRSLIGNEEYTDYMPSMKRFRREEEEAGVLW

[23] = molecular target: T6, Activin receptor type-1 (Homo sapiens, UniProt Q04771); assay: Navigating the Kinome. Panel member name: ACVR1; type: functional
T6 sequence (Q04771 whole entry): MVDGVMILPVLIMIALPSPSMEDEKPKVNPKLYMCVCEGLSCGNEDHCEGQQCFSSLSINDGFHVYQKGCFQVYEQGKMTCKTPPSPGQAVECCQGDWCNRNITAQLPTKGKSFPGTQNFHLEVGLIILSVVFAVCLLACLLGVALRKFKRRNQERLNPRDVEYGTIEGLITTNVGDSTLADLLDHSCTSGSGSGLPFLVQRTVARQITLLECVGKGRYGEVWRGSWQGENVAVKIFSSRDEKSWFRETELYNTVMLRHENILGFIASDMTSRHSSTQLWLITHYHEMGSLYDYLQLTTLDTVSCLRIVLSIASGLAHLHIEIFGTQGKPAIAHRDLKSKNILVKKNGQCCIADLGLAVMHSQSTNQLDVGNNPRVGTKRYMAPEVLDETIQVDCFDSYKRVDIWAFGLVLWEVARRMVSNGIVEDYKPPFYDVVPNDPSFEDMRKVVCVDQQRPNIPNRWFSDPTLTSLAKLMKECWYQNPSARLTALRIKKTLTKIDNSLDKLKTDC

SMILES: NCCNS(=O)(=O)c1cccc2c(Cl)cccc12
AC50 [1]: 22.4 µM (inconclusive)

SMILES: C=CCOc1cccc(C(=O)/C=C2/C(=O)Nc3ccccc32)c1
EC50 [10]: 5.47 µM (inconclusive)
EC50 [11]: 31.5 µM (inconclusive)
EC50 [12]: 7.99 µM (active)
EC50 [13]: 9.43 µM (inconclusive)
IC50 [14]: 5.51 µM (active)

SMILES: CN(C)CCCCSC(=N)N
AC50 [1]: 35.5 µM (inconclusive)

SMILES: O=C(NNC1=C(C(=O)C(F)(F)F)CCC1)c1ccc(Br)cc1
EC50 [15]: > 75 µM (inactive)
EC50 [16]: 1.02 µM (active)
EC50 [17]: 0.152 µM (active)
EC50 [18]: > 180 µM (inactive)
EC50 [19]: 2.23 µM (active)
AC50 [20]: 3.16 µM (active)
AC50 [21]: 1.11 µM (active)
IC50 [6]: 11.2 µM (active)

SMILES: CCOC(=O)C1=C(C)c2ccccc2OC1(C(=O)OCC)c1ccccc1 (configuration not stated)
IC50 [2]: 34.2 µM (active)

SMILES: O=C(Nc1cccc(Cl)c1)Nc1ncc(CCNc2ncnc3ccsc23)s1 [SNS-314]
Ki [23]: > 3.98 µM (inactive)

SMILES: CCN(CC)CCNC(=O)c1cc(S(C)(=O)=O)ccc1OC [TIAPRIDE HYDROCHLORIDE]
AC50 [1]: 35.5 µM (inconclusive)

The remaining lines, values ahead:

IC50 [2]: 6.27 µM (active)
SMILES: O=C(COc1cccnc1[N+](=O)[O-])Nc1ncc(Cl)cc1Cl

IC50 [3]: 21.4 µM (active)
EC50 [4]: > 53 µM (inactive)
IC50 [5]: > 20 µM (inactive)
SMILES: COc1ccc(-c2c(C)nn3c(N4CCCCCC4)cc(C)nc23)cc1OC

IC50 [6]: 2.98 µM (active)
IC50 [7]: 3.12 µM (active)
IC50 [8]: 18.8 µM (active)
IC50 [9]: 16.3 µM (active)
SMILES: Cn1c(/C=C/N(Cc2ccccc2)c2ccccc2)c([N+](=O)[O-])c(=O)n(C)c1=O

IC50 [6]: 4.37 µM (active)
IC50 [7]: 4.22 µM (active)
SMILES: CC1CCCCC1NC(=O)c1cccc(S(=O)(=O)N2CCN(C)CC2)c1 (configuration not stated)

IC50 [6]: 7.57 µM (active)
IC50 [7]: 7.13 µM (active)
SMILES: O=C(NN1C(=O)/C(=C/c2cccs2)SC1=S)c1ccncc1

IC50 [2]: 4.36 µM (active)
SMILES: CC(C)(C)Cc1nnc(NC(=O)Cc2cccs2)s1

IC50 [2]: 7.45 µM (active)
SMILES: Cc1nn(CCc2nnn[nH]2)c2nc(-c3ccccc3)cc(C(F)(F)F)c12

AC50 [21]: 8.19 µM (active)
IC50 [22]: 31.7 µM (active)
IC50 [3]: 18.7 µM (active)
EC50 [4]: > 53 µM (inactive)
IC50 [5]: 14.9 µM (active)
SMILES: Cc1ccc(S(=O)(=O)Nc2ccc3ccccc3c2[N+](=O)[O-])cc1

IC50 [6]: 6.59 µM (active)
IC50 [7]: 7.51 µM (active)
SMILES: OCCN1CCN(c2ncnc3scc(-c4ccc(F)cc4)c23)CC1

IC50 [3]: 7.93 µM (active)
EC50 [4]: 35.2 µM (active)
IC50 [5]: 12.1 µM (active)
SMILES: COc1cc(CCc2ccccc2)c(C(=O)O)c(O)c1CC=C(C)C [AMORFRUTIN A]
